Laboratory results: patent US6841546B2, “Substituted tetracycline compounds as antifungal agents” (Paratek Pharmaceuticals, Inc., priority 2001, dated 2005)

Assay: Mammalian Cytotoxicity Assay (Resazurin)
Format: cell-based
Details: African green monkey (COS-1) and Chinese hamster (CHO)
Method: COS-1 and CHO cell suspensions are prepared, seeded into 96-well tissue culture treated black-walled microtiter plates (density determined by cell line), and incubated overnight at 37° C., in 5% CO2 and approximately 95% humidity. The following day serial dilutions of drug are prepared under sterile conditions and transferred to cell plates. Cell/Drug plates are incubated under the above conditions for 24 hours. Following the incubation period, media/drug is aspirated and 50 μl of Resazurin is added. Plates are then incubated under the above conditions for 2 hours and then in the dark at room temperature for an additional 30 minutes. Fluorescence measurements are taken (excitation 535 nm, emission 590 nm). The IC50 (concentration of drug causing 50% growth inhibition) is then calculated.

SMILES | IC50 at 24 h
C[C@H]1c2cccc(O)c2C(=O)C2=C(O)[C@]3(O)C(=O)C(C(N)=O)=C(O)[C@@H](N(C)C)[C@@H]3[C@@H](O)[C@@H]21 [doxycycline] | > 25 mg/L
CN(C)c1ccc(O)c2c1C[C@H]1C[C@H]3[C@H](N(C)C)C(O)=C(C(N)=O)C(=O)[C@@]3(O)C(O)=C1C2=O [minocycline] | > 25 mg/L
